2 compounds from patent US10961229B2, “Selective NR2B antagonists” (Bristol-Myers Squibb Company, priority 2015, dated 2021) can be followed below.

One series concerns the target T1, NR2B-subtype receptors (Mus musculus, UniProt P35438+Q01097).
T1 construct: brain-resident NR2B-subtype receptors; from tissue; host or cells: forebrain membrane homogenates of dosed CD-1 mice
The series can be described thus: Ex vivo occupancy assay. The format is in vivo. The conditions noted are these: for receptor occupancy at 3 mg/kg: mouse, iv. The protocol: Ex vivo occupancy assay. […] 7-9 weeks old male CD-1 mice were dosed intravenously in a vehicle consisting of 10% dimethylacetamide, 40% PEG-400, 30% hydroxypropyl betacyclodextrin, and 30% water with experimental compounds and the forebrains were harvested 15 minutes post-dosing by decapitation. The brain samples were immediately snap-frozen and stored at −80° C. On the following day, the dosed brain samples were thawed on ice for 15-20 minutes followed by homogenization using Polytron for 10 seconds in cold homogenization buffer composed of 50 mM KH2PO4 (pH adjusted to 7.4 with KOH), 1 mM EDTA, 0.005% Triton X 100 and protease inhibitor cocktail (Sigma Aldrich). The crude homogenates were further homogenized using a Dounce homogenizer and the homogenized membrane aliquots from all animals were flash-frozen and stored at −80° C. until further use. The whole homogenization process was performed on ice.
For determining occupancy, the membrane homogenates were first thawed on ice and then needle-homogenized using a 25 gauge needle. The homogenized membrane (6.4 mg/ml) was added to a 96-well plate followed by addition of ^3H Ro 25-6981 (6 nM). The reaction mixture was incubated for 5 minutes on a shaker at 4° C. and then harvested onto GF/B filter plates (treated with 0.5% PEI for 1 hr at room temperature). The filter plates were dried at 50° C. for 20 mins, incubated with microscint 20 for 10 minutes and read on TopCount (Perkin Elmer). Each dose or compound group consisted of 4-5 animals. The control group of animals was dosed with vehicle alone. Membrane from each animal was added in triplicates to the assay plate. Non-specific binding was determined using 10 μM Ro 25-6981 added to the wells containing membrane homogenates from vehicle-dosed animals. Specific counts/minute was converted to % occupancy at each dose of a compound for each animal using the following equation:
(§1) [formula] […] Drug levels were determined by mass spectroscopy in the usual manner. Drug levels in the blood plasma were 1018 nM in at this dose, and drug levels in the homogonized brain tissue were 1342 nM.

The next series concerns mice. The series can be described thus: Mouse Forced swim test (mFST). In kind it is in vivo. The conditions noted are these: 3 mg/Kg i.v., 15 min before swim session, 6 min test. The method, then: Mouse Forced swim test (mFST). Forced Swim Test (FST) is an animal model used to assess antidepressant compounds in preclinical studies. The FST was performed similar to the method of Porsolt et al. with modifications (Porsolt R D, Bertin A, Jalfre M. Behavioral despair in mice: a primary screening test for antidepressants. Arch Int Pharmacodyn Thér 1977; 229:327-36). In this paradigm, mice are forced to swim in an inescapable cylinder filled with water. Under these conditions, mice will initially try to escape and eventually develop immobility behavior; this behavior is interpreted as a passive stress-coping strategy or depression-like behavior. […] The duration of immobility was evaluated during the total 6 min of the test and expressed as duration (sec) of immobility. […] All testing sessions were recorded with a video camera (Sony Handicam, Model: DCR-HC38E; PAL) and scoring was done using the Forced Swim Scan, Version 2.0 software (Clever Systems Inc., Reston, Va., USA; see Hayashi E, Shimamura M, Kuratani K, Kinoshita M, Hara H. Automated experimental system capturing three behavioral components during murine forced swim test. Life Sci. 2011 February 28; 88 (9-10): 411-7 and Yuan P, Tragon T, Xia M, Leclair C A, Skoumbourdis A P, Zheng W, Thomas C J, Huang R, Austin C P, Chen G, Guitart X. Phosphodiesterase 4 inhibitors enhance sexual pleasure-seeking activity in rodents. […]

A short description of series [1]: Drug levels in blood plasma and homogenized brain tissue by mass spectroscopy. The format is in vivo, mouse. The conditions noted are these: intravenous; for concentration at 15 min: CD-1, mouse, 3 mg/Kg i.v. dose, ex vivo occupancy study, mice; for concentration at 21 min: 3 mg/Kg i.v., end of mouse forced swim test. The method, then:
as §1
Mouse Forced swim test (mFST). Forced Swim Test (FST) is an animal model used to assess antidepressant compounds in preclinical studies. The FST was performed similar to the method of Porsolt et al. with modifications (Porsolt R D, Bertin A, Jalfre M. Behavioral despair in mice: a primary screening test for antidepressants. Arch Int Pharmacodyn Thér 1977; 229:327-36). In this paradigm, mice are forced to swim in an inescapable cylinder filled with water. Under these conditions, mice will initially try to escape and eventually develop immobility behavior; this behavior is interpreted as a passive stress-coping strategy or depression-like behavior. Swim tanks were positioned inside a box made of plastic. Each tank was separated from each other by opaque plastic sheets to the height of cylinders. Three mice were subjected to test at a time. Swim sessions were conducted for 6 min by placing mice in individual glass cylinders (46 cm height×20 cm diameter) containing water (20-cm deep, maintained at 24-25° C.). […] The mouse was judged to be immobile whenever it remained floating passively without struggling in the water and only making those movements necessary to keep its nose/head above the water and to keep it afloat. The duration of immobility was evaluated during the total 6 min of the test and expressed as duration (sec) of immobility. Each mouse was tested only once. At the end of each session, mice were dried with a dry cloth and returned to their home cage placed on a thermal blanket to prevent hypothermia. Water was replaced after each trial. All testing sessions were recorded with a video camera (Sony Handicam, Model: DCR-HC38E; PAL) and scoring was done using the Forced Swim Scan, Version 2.0 software (Clever Systems Inc., Reston, Va., USA; see Hayashi E, Shimamura M, Kuratani K, Kinoshita M, Hara H. Automated experimental system capturing three behavioral components during murine forced swim test. Life Sci. 2011 February 28; 88 (9-10): 411-7 and Yuan P, Tragon T, Xia M, Leclair C A, Skoumbourdis A P, Zheng W, Thomas C J, Huang R, Austin C P, Chen G, Guitart X. Phosphodiesterase 4 inhibitors enhance sexual pleasure-seeking activity in rodents. Pharmacol Biochem Behav. 2011; 98(3):349-55). For NCE testing: Test compound was administered in mice 15 min before swim session by i.v. route and immobility time was recorded for next 6 min. […] The NR2B receptor occupancy was determined as reported above and was determined to be 67%.

For series [2], the target named is T2, NR2B-subtype NMDA receptors (Rattus norvegicus, UniProt P35439+Q00960).
T2 construct: from tissue; host or cells: rat forebrain membrane homogenate (Sprague Dawley, Harlan)
T2 sequence (Q00960 27-1482, other chains not shown): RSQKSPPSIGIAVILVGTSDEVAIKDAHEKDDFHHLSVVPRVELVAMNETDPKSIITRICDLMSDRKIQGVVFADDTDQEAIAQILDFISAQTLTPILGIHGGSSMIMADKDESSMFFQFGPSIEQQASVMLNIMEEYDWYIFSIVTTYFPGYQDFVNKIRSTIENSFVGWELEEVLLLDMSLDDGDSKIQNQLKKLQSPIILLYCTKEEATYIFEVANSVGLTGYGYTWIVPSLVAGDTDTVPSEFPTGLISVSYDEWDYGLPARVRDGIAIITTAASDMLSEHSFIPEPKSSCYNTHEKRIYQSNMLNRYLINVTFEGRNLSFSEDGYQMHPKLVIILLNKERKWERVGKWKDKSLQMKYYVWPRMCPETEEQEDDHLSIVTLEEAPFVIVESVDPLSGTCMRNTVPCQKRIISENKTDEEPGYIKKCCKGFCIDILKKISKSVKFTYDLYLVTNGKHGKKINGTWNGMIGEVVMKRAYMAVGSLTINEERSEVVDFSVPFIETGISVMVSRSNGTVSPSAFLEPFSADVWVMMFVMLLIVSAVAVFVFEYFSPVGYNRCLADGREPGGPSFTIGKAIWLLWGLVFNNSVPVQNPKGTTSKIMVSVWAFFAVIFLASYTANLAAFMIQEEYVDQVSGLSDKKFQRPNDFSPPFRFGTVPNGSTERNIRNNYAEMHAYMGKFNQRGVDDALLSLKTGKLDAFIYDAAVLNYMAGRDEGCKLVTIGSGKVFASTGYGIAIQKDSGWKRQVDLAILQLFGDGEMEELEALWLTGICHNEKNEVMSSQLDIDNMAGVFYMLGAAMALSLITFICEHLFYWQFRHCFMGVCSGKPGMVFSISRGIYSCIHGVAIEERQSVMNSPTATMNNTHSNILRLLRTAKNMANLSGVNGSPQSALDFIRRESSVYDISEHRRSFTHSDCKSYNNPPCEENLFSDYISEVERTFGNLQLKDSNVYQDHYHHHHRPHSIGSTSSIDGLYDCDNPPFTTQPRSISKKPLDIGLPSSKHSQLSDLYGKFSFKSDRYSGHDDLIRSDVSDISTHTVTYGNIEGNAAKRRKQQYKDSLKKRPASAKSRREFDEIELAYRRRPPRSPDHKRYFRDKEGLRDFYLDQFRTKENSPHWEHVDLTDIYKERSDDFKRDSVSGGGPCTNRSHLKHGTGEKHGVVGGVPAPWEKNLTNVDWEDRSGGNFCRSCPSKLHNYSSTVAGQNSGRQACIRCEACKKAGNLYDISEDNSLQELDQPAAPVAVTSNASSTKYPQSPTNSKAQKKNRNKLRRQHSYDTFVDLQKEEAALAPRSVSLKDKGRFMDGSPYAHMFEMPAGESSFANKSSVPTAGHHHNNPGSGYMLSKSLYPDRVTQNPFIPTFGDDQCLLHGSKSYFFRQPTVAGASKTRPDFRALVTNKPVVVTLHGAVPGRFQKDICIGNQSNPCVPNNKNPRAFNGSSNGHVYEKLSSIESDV
Nature of the series: Radioligand binding assay (3H Ro 25-6981 competition). To be noted: rat forebrain membranes, 3H Ro 25-6981 (4 nM). The method, then: Radioligand binding assay. Binding experiments to determine binding to NR2B-subtype NMDA receptors were performed on forebrains of 8-10 weeks old male Sprague Dawley rats (Harlan, Netherlands) using ^3H Ro 25-6981 (Mutel V; Buchy D; Klingelschmidt A; Messer J; Bleuel Z; Kemp J A; Richards J G. Journal of Neurochemistry, 1998, 70(5):2147-2155. Rats were decapitated without anesthesia using a Guillotine (approved by animal ethics committee) and the harvested brains were snap-frozen and stored at −80° C. for 3-6 months for membrane preparation.
For membrane preparation, rat forebrains were thawed on ice for 20 minutes in homogenization buffer composed of 50 mM KH2PO4 (pH adjusted to 7.4 with KOH), 1 mM EDTA, 0.005% Triton X 100 and protease inhibitor cocktail (Sigma Aldrich). Thawed brains were homogenized using a Dounce homogenizer and centrifuged at 48000×g for 20 min. The pellet was resuspended in cold buffer and homogenized again using a Dounce homogenizer. Subsequently, the homogenate was aliquoted, snap-frozen and stored at −80° C. for not more than 3-4 months.
To perform the competition binding assay, thawed membrane homogenate was added to each well of a 96-well plate (20 μg/well). […] The filter plates were dried at 50° C. for 20 mins, incubated with microscint 20 for 10 minutes and finally, the counts were read on TopCount (Perkin Elmer).

The target in another series is T3, hERG channels (Homo sapiens, UniProt Q12809).
T3 construct: expressed in transfected cells
T3 sequence (Q12809 whole entry): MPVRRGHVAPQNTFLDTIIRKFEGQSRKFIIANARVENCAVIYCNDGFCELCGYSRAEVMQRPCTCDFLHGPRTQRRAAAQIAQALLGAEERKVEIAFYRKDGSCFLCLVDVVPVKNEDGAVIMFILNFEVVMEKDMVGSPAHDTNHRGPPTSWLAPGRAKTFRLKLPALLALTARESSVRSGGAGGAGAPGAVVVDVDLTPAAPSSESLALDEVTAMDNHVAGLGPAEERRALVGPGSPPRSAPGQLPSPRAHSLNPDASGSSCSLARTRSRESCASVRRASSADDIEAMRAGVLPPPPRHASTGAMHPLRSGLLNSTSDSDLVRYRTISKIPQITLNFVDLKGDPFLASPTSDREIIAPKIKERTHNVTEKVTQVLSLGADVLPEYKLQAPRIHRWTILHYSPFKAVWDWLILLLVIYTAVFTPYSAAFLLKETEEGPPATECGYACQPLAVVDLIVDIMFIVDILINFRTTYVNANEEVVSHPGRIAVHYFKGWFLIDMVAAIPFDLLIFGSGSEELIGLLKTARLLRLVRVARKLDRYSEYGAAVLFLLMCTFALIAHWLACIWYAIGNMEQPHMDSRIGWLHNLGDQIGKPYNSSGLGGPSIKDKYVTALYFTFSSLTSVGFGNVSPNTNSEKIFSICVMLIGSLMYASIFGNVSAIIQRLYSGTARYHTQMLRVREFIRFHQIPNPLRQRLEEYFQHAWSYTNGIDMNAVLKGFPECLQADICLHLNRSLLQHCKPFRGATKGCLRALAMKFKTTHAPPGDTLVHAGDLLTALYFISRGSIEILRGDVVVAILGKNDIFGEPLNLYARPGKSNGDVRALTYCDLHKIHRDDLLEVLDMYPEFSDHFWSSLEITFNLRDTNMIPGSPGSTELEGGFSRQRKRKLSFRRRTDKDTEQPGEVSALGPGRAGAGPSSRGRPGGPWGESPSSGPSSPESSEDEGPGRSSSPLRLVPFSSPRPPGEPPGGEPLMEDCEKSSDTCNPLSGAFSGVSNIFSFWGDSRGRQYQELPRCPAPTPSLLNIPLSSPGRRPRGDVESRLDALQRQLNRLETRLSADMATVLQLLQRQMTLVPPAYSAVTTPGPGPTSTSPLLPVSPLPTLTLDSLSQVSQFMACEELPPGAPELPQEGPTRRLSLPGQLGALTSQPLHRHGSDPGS
Nature of the series: hERG electrophysiology assay (patch clamp). In kind it is cell-based. To be noted: HEK 293 cells stably expressing hERG channels, tail current. The method, then: hERG electrophysiology assay. The experimental compounds were assessed for hERG activity on HEK 293 cells stably expressing hERG channels using patch clamp technique. Coverslips plated with hERG expressing cells were placed in the experimental chamber and were perfused with a solution composed of (in mM): 140 NaCl, 4 KCl, 1.8 CaCl2, 1 MgCl2, 10 Glucose, 10 HEPES (pH 7.4, NaOH) at room temperature. Borosilicate patch pipettes had tip resistances of 2-4 Mohms when filled with an internal solution containing: 130 KCl, 1 MgCl2, 1 CaCl2, 10 EGTA, 10 HEPES, 5 ATP-K2 (pH 7.2, KOH). The cells were clamped at −80 mV in whole cell configuration using an Axopatch 200B (Axon instruments, Union City, Calif.) patch clamp amplifier controlled by pClamp (Axon instruments) software. […] First, tail currents were recorded in presence of extracellular solution alone (control) and subsequently, in extracellular solution containing increasing compound concentrations. […] The percentage inhibition at each concentration was calculated as reduction in peak tail current with respect to the peak tail current recorded in the presence of control solution. […]
(The hERG channel carries a current that helps repolarise heart muscle cells.)

Each structure is given as a SMILES string. pIC50, pKi: −log10 of the molar value. Read-outs that look alike come from different tables or passages of the source.

T1 sequence (Q01097 27-1482, other chains not shown): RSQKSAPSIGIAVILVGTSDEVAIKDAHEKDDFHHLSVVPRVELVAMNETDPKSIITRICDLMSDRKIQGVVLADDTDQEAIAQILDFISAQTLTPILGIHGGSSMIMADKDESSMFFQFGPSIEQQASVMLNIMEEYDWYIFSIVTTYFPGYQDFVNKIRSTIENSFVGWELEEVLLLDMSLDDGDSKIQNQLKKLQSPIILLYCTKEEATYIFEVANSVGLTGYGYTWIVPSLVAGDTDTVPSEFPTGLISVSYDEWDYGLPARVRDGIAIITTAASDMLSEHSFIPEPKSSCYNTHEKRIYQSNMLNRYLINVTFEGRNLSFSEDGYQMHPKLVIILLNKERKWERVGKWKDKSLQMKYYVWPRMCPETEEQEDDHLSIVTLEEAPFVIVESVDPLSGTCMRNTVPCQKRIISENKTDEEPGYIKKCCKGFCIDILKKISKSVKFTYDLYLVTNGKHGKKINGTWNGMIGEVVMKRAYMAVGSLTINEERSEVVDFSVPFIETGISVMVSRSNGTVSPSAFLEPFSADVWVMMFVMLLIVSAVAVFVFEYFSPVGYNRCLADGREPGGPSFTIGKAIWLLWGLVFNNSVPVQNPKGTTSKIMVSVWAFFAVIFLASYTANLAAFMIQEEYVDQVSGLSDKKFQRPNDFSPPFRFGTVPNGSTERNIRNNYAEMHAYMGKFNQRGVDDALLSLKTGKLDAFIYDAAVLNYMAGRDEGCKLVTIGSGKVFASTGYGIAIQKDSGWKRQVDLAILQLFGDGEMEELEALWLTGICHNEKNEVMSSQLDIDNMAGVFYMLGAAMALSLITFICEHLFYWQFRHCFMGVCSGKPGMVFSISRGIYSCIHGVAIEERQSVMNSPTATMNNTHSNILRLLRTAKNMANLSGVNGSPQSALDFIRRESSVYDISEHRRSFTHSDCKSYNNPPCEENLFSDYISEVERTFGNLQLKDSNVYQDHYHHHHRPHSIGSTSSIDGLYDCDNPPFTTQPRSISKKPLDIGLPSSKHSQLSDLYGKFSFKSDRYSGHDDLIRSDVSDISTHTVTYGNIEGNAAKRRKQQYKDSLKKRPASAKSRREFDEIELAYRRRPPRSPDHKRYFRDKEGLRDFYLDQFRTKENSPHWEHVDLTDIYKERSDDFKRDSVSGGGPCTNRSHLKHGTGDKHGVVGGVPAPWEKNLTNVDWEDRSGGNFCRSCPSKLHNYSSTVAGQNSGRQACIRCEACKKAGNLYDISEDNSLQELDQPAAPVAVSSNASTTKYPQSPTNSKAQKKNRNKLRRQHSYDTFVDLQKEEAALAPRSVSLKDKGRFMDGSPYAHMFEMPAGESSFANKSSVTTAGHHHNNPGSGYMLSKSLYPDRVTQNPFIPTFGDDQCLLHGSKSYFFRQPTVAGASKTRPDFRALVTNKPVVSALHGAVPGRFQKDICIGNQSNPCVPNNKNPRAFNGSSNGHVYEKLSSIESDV

Take `O=C1C(N2CCN(c3ncc(O)cn3)CC2)CCN1c1ccc(Cl)c(F)c1` (racemic) [Example 1, 1-(4-chloro-3-fluorophenyl)-3-(4-(5-hydroxypyrimidin-2-yl)piperazin-1-yl)pyrrolidin-2-one]: the “occupancy of brain-resident NR2B-subtype receptors (in words)” value at NR2B-subtype receptors (animals after dosing) is recorded as “occupies brain-resident NR2B-subtype receptors”.
The pKi is the negative decadic logarithm of the Ki, by convention in mol/L. High values mean a low Ki, low ones a high Ki. By pIC50 is commonly meant the negative decadic logarithm of the IC50, by convention in mol/L. A higher pIC50 goes with a low IC50. Take `Cc1ccc(N2CCC(N3CCN(c4ccc(O)cn4)CC3)C2=O)cc1F` (single isomer, unassigned) [Example 14 P1, 1-(3-fluoro-4-methylphenyl)-3-(4-(5-hydroxypyridin-2-yl)piperazin-1-yl)pyrrolidin-2-one]: the receptor occupancy at 3 mg/kg turned out to be 86% at NR2B-subtype receptors (3 mg/Kg i.v. dose, CD-1 mice, forebrains harvested 15 minutes post-dosing) and 67% on NR2B-subtype receptors (3 mg/Kg i.v., mice of the forced swim test). Besides, the immobility time entry in the series on mice is given as “statistically significant decrease”. Besides, the concentration at 15 min in series [1] (brain homogenate, read-out: drug levels in the homogonized brain tissue) was found to be 1340 nM; in series [1] (plasma, read-out: Drug levels in the blood plasma) it was 1020 nM. The concentration at 21 min was determined as 410 nM in series [1] (brain, read-out: Drug levels in the brain) and 314 nM in series [1] (plasma, read-out: Drug levels in the plasma). Also, the negative logarithm of the Ki (pKi) in series [2] is 8.40. The pIC50 against hERG channels is 5.05.
